From patent US20090041862A1, “Detecting disease association with aberrant glycogen synthase kinase 3beta expression” (priority 2004, published 2009)

Tests used:
GSKΔexon9+11 = assay: Inhibition of endogenous Tau [pS396] phosphorylation in COS-7 cells transfected with GSKΔexon9+11 cDNA (ELISA); type: cell-based, human
Procedure: Lymphocytes (as described in Example 3) or transfected cells were lysed in 1× Lysis buffer (50 mM Tris.HCl (pH 7.4), 150 mM NaCl, 1 mM PMSF, 1× complete cocktail protease inhibitor (Boehringer Mannheim) and 0.05% Triton X-100. Approximately 2-25 μg of total protein was used to assay for total Tau or Tau phosphorylated at serine residue 396 using the Human Tau or Human Tau [pS396] ELISA kit respectively (Biosource International, CA, USA).
COS-7 cells plated onto 12 well plates at concentration of 1×10^5 cells/well and allowed to recover for 24 hours. Each well was transfected with either the GSKΔexon9 or GSKΔexon9+11 cDNA constructs (as described in Example 4) using Lipofectamine 2000.

[1] = target: Tau (endogenous Tau protein in COS-7 cells); assay: cell-based or functional assay

| Compound | increase in sensitivity of GSKΔexon9+11 compared with GSKΔexon9 (GSKΔexon9+11; ratio of IC50 values, COS-7 cells) [fold] | suppressing the level of tau phosphorylation in a cell expressing GSK-3β lacking exon 9 and exon 11 vs lacking exon 9 (GSKΔexon9+11; result in words) | levels of Tau [pSer396] by ELISA in COS-7 cells transfected with GSK-3β isoform cDNAs [1] [fold] |
| --- | --- | --- | --- |
| Cn1sc(=O)n(Cc2ccccc2)c1=O [TDZD8] | 2 | at a level greater than observed in a cell expressing GSK-3β lacking exon 9 |  |
| GSK-3β lacking exon 9 and exon 11 (GSKΔexon9+11 isoform) (from UniProt P49841 1-420) |  |  | 2.5 |
